What was measured:
NCM460 cells = assay: Flow cytometric analysis of apoptosis with propidium iodide co-staining (Fig. S14, S15); conditions: NCM460, 2 μM
Description: Analysis of induction of apoptosis in HCT116 and NCM460 cells after incubation
with gold(III) complexes and FITC-annexin V staining by flow cytometry.
dishes respectively. The cells were incubated at 37 °C under an atmosphere of 5%
CO2 for 48 h. The culture medium was then removed, washed with PBS solution. The
cells were then incubated with culture medium containing nanostructures of 1 (2 µM)
or Au1a (2 µM; with 1 vol% DMSO) at 37 °C under an atmosphere of 5% CO2 for 24
h. All the cells were harvested, and washed with PBS solution and annexin-binding
buffer solution. The cells were collected by centrifugation at 2000 rpm for 5 min, and
re-dispersed in annexin-binding buffer solution with cell concentration of ca. 110 6
cells/mL. FITC- Annexin V (5 µL) was added to an aliquot of the cell suspension
(100 µL), and the cells were incubated at room temperature in dark for 15 min. The
solution mixture was then diluted by annexin-binding buffer solution (400 µL), kept
in ice and analyzed by flow cytometry immediately.
with gold(III) complexes by CellEvent Caspase-3/7 Green Detection Reagent
staining and flow cytometry. The procedure is similar to that using FITC-Annexin V
staining, except that the harvested cells were re-dispersed in PBS solution with 2%
BSA (w/w; 100 µL) and incubated with CellEvent Caspase-3/7 Green Detection
Reagent (2.5 µM) at 37 °C for 30 min, and subsequently stained with propidium […]

human cancer cell lines = assay: In vitro cytotoxicity toward cancer cells compared to cisplatin (MTT); type: cell-based; conditions: MTT 72 h
Description: The in vitro cytotoxicity of 1–3 and Au1a to human cancer cell lines (HeLa, NCI-H460, HCT116, A2780) and the cisplatin- and doxorubicin-resistant cancer cell lines (A2780cis and A2780adr), as well as normal human colon mucosal epithelial cell line (NCM460), non-tumorigenic immortalized liver cells (MIHA) and normal lung fibroblast cells (CCD-19Lu), was evaluated using a 3-(4,5-dimethyl-2-thiazolyl)-2,5-diphenyltetrazolium bromide (MTT) assay (Table 1; Fig. S5a ^†). […] The low toxicity of 1 was also found in experiments with non-tumorigenic liver L02 and gliocyte CHEM-5 cells (Table S5 ^†). […]
The gold content of the nanocomposites was determined by dissolving the nanocomposites in conc. […]
The content of DOX in the nanocomposites was measured as follows. […] The solution was then diluted and filtered, and the content of DOX in the nanocomposite was determined by UPLC with photodiode array detector using daunorubicin hydrochloride (3.6 µM) as the internal standard. […]
hydrochloride standard over the peak area of daunorubicin hydrochloride (3.6 µM) in the UPLC chromatograms of the doxorubicin hydrochloride standard spiked with daunorubicin hydrochloride (3.6 µM). The encapsulation efficiency of DOX by nanostructures of 1 was calculated by the equation: […]
which reflected the amount of blue formazan formed. IC50 values were then determined by CompuSyn S6 from three independent measurements. […]

[1] = In vivo biodistribution by ICP-MS in nude mice bearing HCT116 xenografts; conditions: single-dose i.v., 24 h post-treatment
Description: Significant pulmonary hemorrhage in the alveoli and a thickening of alveolar walls were found. Also, apoptotic hepatocytes and swollen renal epithelial cells were found, leading to subsequent shrinkage of kidney tubules. […] The lower systemic toxicity of 1 can be explained by the lower accumulation of 1 in the organs of mice treated at its effective dosage, as compared to that of 3 and Au1a (Fig. S23 ^†). […] This can be attributable to the nanostructures of 1, which may lead to in vivo tumor accumulation by the EPR effect.[55] […]
point of tumor growth inhibition study, the mice treated with complex 1, 3 and Au1a, respectively, were sacrificed and tissues including liver, spleen, lung, kidney and heart were harvested. The tissues were digested with 10% HCl in concentrated HNO3 (0.1 g of tissue/1 mL). The solution mixture was heated at 60 °C for 15 h, and then diluted 50 times by ultra-pure water for ICP-MS analysis.
Determination of in vivo biodistribution of complex 1, 3 and Au1a by ICP-MS.
Nude mice bearing HCT116 xenografts were treated with 1 (13 mg/kg), or equal molar amount of Au1a (2 mg/kg) or 3 (2 mg/kg) through intravenous injection. After 24 h of the injection, the mice were sacrificed and tissues from tumor, liver, spleen, lung, kidney and heart were harvested. The tissues were digested with 10% HCl in concentrated HNO3 (0.1 g of tissue/1 mL). […]

Row | Compound | viability (Q3 region, corrected) (NCM460 cells; 24 h) [%] | viability (Q3 region, corrected) (NCM460 cells; 36 h) [%] | times more cytotoxic than cisplatin (human cancer cell lines) | higher accumulation in tumor compared to mice treated with 3 ([1]; equal molar amount (1 13 mg kg^–1, 3 2 mg kg^–1)) [fold] | higher accumulation in tumor compared to mice treated with Au1a ([1]; equal molar amount (1 13 mg kg^–1, Au1a 2 mg kg^–1)) [fold]
1 | C1=Cc2nc1c(-c1ccccc1)c1ccc([n-]1)c(-c1ccccc1)c1nc(c(-c3ccccc3)c3ccc([n-]3)c2-c2ccccc2)C=C1.[Au+3].[Cl-] [Au1a, [Au(TPP)]Cl, reference compound] | 61.14 | 56.64 | – | – | –
2 | [Au(TPP–COO–PEG5000–OCH3)]Cl [Compound 1] | – | – | 5.1–76.9 times | 2.0 | 3.3

— PMC5384453, “A multi-functional PEGylated gold(III) compound: potent anti-cancer properties and self-assembly into nanostructures for drug co-delivery” (Chemical Science, 2016)
